Here are results for two compounds from US20200255438A1, “NOVEL SALTS” (priority 2017, published 2020).

Data set [1] in a line: Aqueous solubility (equilibration in de-ionised water, HPLC). The format is physicochemical. Conditions: for Form retention of solids after solubility equilibration (XRPD): 24 hours in de-ionised water, solids dried at 50° C., re-analysed by XRPD; for solubility at 24 h: de-ionised water, water, thermodynamic from solid, 25° C. The procedure:
[…] Solids were isolated by filtration to deliver clear liquors that were analyzed for API content by HPLC vs a known standard of free base (typical dilution of 50× using deionized water for salt candidates to deliver a working concentration in line with the standard at 0.5 mg/ml). The solids were dried at 50° C. and re-analysed by XRPD to confirm form retention—both mesylate and citrate retain form.

A short description of data set [2]: Solid form stability under extremes of humidity (XRPD post DVS/GVS). Conditions: 0% RH and 90% RH, XRPD vs input. In kind it is physicochemical. From the text:
FIG. 1: XRPD patterns of citrate salt (Example 1), Ex-DVS examination at 0% RH, (top panel), 90% RH, (middle panel) and input (bottom panel).
FIG. 3: XRPD data for mesylate salt (Example 2) exposed to extremes of humidity post GVS cycle: input (bottom panel) output 0% (top panel) output 90% (middle panel).
X-Ray Powder Diffraction (XRPD)
X-Ray Powder Diffraction patterns were collected on a PANalytical diffractometer using Cu Kα radiation (45 kV, 40 mA), θ−θ goniometer, focusing mirror, divergence slit (½″), soller slits at both incident and divergent beam (4 mm) and a PIXcel detector. The software used for data collection was X'Pert Data Collector, version 2.2f and the data was presented using X'Pert Data Viewer, version 1.2d.
XRPD patterns were acquired under ambient conditions via a transmission foil sample stage (polyimide—Kapton, 12.7 μm thickness film) under ambient conditions using a PANalytical X'Pert PRO. The data collection range was 2.994-35°2θ with a continuous scan speed of 0.202004°s^−1.

By solubility is commonly meant the concentration that dissolves in the medium under given conditions.

`Cc1cc(-c2ccc(C(F)(F)F)cc2)nc([C@H]2CC[C@@]3(CCN(C)C3=O)N2)n1.O=C(O)CC(O)(CC(=O)O)C(=O)O` [Example 1, (2R,5S)-7-Methyl-2-[4-methyl-6-[4-(trifluoromethyl)-phenyl]pyrimidin-2-yl]-1,7-diazaspiro[4.4]nonan-6-one citric acid (citrate) salt]: in data set [1], the “Form retention of solids after solubility equilibration (XRPD)” value was “retain form” and the solubility at 24 h was 22 mg/mL. Besides, the “Crystalline form stability / hydrate formation under different extremes of humidity (XRPD)” value in data set [2] is “no tendency to form hydrates”.

`CS(=O)(=O)O.Cc1cc(-c2ccc(C(F)(F)F)cc2)nc([C@H]2CC[C@@]3(CCN(C)C3=O)N2)n1` [Example 2, (2R,5S)-7-Methyl-2-[4-methyl-6-[4-(trifluoromethyl)-phenyl]pyrimidin-2-yl]-1,7-diazaspiro[4.4]nonan-6-one methanesulfonic acid (mesylate) salt]: in data set [1], the “Form retention of solids after solubility equilibration (XRPD)” value is listed as “retain form” and the solubility at 24 h stood at 65 mg/mL. Further, the “Crystalline form stability / hydrate formation under different extremes of humidity (XRPD)” value in data set [2] is “no tendency to form hydrates”.
